# Measurements reported in publication PMC6532426 (Nature chemistry, 2019).
# Target: active human CypA protein (Homo sapiens, UniProt P62937)
# Assay: Surface plasmon resonance
# Format: binding
# Settings: assays of Fig. 5 (CypA SPR, IL-2)
# Sequence of active human CypA protein (P62937 whole entry): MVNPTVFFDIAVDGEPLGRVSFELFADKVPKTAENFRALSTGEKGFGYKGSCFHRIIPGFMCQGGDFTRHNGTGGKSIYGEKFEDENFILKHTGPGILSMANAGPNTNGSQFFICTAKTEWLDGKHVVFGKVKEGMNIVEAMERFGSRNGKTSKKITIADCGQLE
immunosuppressive activity / CypA affinity in words,immunosuppressive activity / CypA affinity in words (listed as (–)-28),SMILES
completely inactive,–,CC(=O)O[C@@H]1OC[C@H]2CC(=O)CC[C@H]21 [(-)-24]
completely inactive,inactive,CC1(C)CCCC(C)(C2=C[C@@H]3COC(=O)[C@@H]3CC2)C1 (stereo partly drawn) [compound 28]
